The test system of assay [1] is SNB-19. Briefly: Compound was evaluated in vitro against NCI CNS cancer cell line SNB19; Not active. The class given is functional, cell-based, Homo sapiens.
Assay [2] has as its system SNB-19. The assay is described as follows: Compound was evaluated in vitro against NCI CNS cancer cell line SNB19. The class given is functional, cell-based. The following applies: Homo sapiens.

2 compounds from ChEMBL document CHEMBL1130309, “Syntheses and anticancer activity of ribonucleoside analogues containing thio-substituted five-membered heterocyclic base” (Bioorg Med Chem Lett, 1997) can be followed below.

The structures appear in SMILES notation.

Usually IC50 stands for the concentration that gives 50% inhibition. Read a high IC50 as weaker potency. For `Nc1nn([C@@H]2O[C@H](COCc3ccccc3)[C@@H](OCc3ccccc3)[C@H]2OCc2ccccc2)c(=S)s1`, the IC50 entry in the assay with SNB-19 [1] is “Not Active”. On to `Nc1nn(C2O[C@H](CO)[C@@H](O)[C@H]2O)c(=S)s1` (some centres not stated), for which, in the assay on SNB-19 [2], the IC50 came to 39.4 nM.
